Source: patent US20080249001A1, “AGENTS THAT ALLEVIATE SIDE-EFFECTS CAUSED BY CHEMOTHERAPY AGENTS” (priority 2006, published 2008)
Where a name gives a salt, the structure may show the parent alone. Bridges are numbered along the chain shown (N, C = ends). Where no end group is shown, it is not given here.

Tests used:
[1] = system: mouse bone-marrow cells (CFU-E colonies); test: in vitro CFU-E colony assay in methylcellulose semisolid medium under the existence of EPO; type: cell-based; settings: for CFU-E inhibiting action (inhibition of expression of CFU-E colonies) / CFU-E inhibiting action (expression of CFU-E colonies): 48 hours
Procedure: (§1) More specifically, the in vitro colony assay method wherein a methylcellulose semisolid medium is used is generally used as the method for determining CFU-E. It is the most suitable experimental system for finding the action of improving the decrease of CFU-E caused by chemotherapy agents. […] In the oral administration to rats, the single administration of 1.2 g/kg of arginine makes the blood concentration thereof reach around 600 μM. Therefore, the increase of CFU-E dependent on the administered dose is expected in the oral administration. In human beings, too, it is expected that the number of CFU-E increases depending on the blood concentration of arginine by the oral administration.
The in vitro CFU-E colony assay was conducted as follows. After making a male BDF-1 mouse of 11 weeks old (by Charles River Laboratories Japan, Inc.) die by the cervical dislocation method, the bone-marrow cells were isolated from the thighbone and suspended in the IMDM medium (by Invitrogen Corporation) which contained 10% FCS (by JRH Biosciences). The bone-marrow cells were centrifuged at 1500 rpm for 10 minutes at 4° C. Then, the precipitated bone-marrow cells were substituted on the IMDM medium without an amino acid, and the number of the cells was determined. 1 mL of a methylcellulose semisolid medium wherein the bone-marrow cells were suspended in the IMDM medium of ⅓ concentration (0.03, 0.1, 0.3 and 1.0 U/mL of rHuEPO by Chugai Pharmaceutical Co., Ltd.; 100 μM of 2-mercaptoethanol by Wako Pure Chemical Industries, Ltd.; 15% FCS by JRH Biosciences; 0.8% methylcellulose, IMDM solution M3134 containing methylcellulose by StemCell Technologies Inc.; 1% BSA by Sigma-Aldrich Japan K.K.; and bone-marrow cells 2.5×10^5/mL) was added to a dish of 3.5 cm in diameter (Nalge Nunc International K.K.). After the medium was cultured at 37° C. under 5% CO2 for 48 hours, the number of CFU-E colonies was determined by using an inverted microscope. […] Data is indicated as the average value.
The in vitro CFU-E colony assay was conducted in the EPO concentration of the maximal action amount thereof. […] Then, the number of CFU-E colonies was determined by using an inverted microscope. […] Data is indicated as the average value.
The CFU-E colony assay was conducted by the same method as that of Example 1. […] Data is indicated as the average value. The vertical axis is the relative value (%) when regarding the number of CFU-E colonies in the control case as 100%.
The in vitro CFU-E colony assay was conducted in the EPO concentration of the maximal action amount thereof. The bone-marrow cells were prepared by the same method as that of Example 1, using a male BDF-1 mouse of 12 weeks old (by Charles River Laboratories Japan, Inc.). Irinotecan hydrochloride was further added to a methylcellulose semisolid medium wherein the bone-marrow cells were suspended in the IMDM medium of ⅓ concentration (1.0 U/mL of rHuEPO by Chugai Pharmaceutical Co., Ltd.; 100 μM of 2-mercaptoethanol by Wako Pure Chemical Industries, Ltd.; 30% FCS by JRH Biosciences; 0.8% methylcellulose, IMDM solution M3134 containing methylcellulose by StemCell Technologies Inc.; 1% BSA by Sigma-Aldrich Japan K.K.; and bone-marrow cells 2.5×10^5/mL), so that the final concentration of irinotecan hydrochloride became 1 μM and 10 μM. After the medium was cultured at 37° C. under 5% CO2 for 48 hours, the number of CFU-E colonies was determined by using an inverted microscope. […] Data is indicated as the average value.
The CFU-E colony assay was conducted by the same method as that of above (1), using a male BDF-1 mouse of 11 weeks old (by Charles River Laboratories Japan, Inc.). The medium to which only 3 μM of irinotecan hydrochloride in its final concentration was added and the medium to which irinotecan hydrochloride in the same concentration as above and 600 uM of arginine were simultaneously further added were prepared and the number of CFU-E colonies was determined. […]

[2] = system: mouse bone-marrow cells (CFU-E colonies); test: in vitro CFU-E colony assay under the existence of EPO mimic peptide EMP1; type: cell-based
Procedure: The bone-marrow cells were prepared by the same method as that of Example 1, using a male BDF-1 mouse of 10 weeks old (by Charles River Laboratories Japan, Inc.). 1 mL of a methylcellulose semisolid medium wherein the bone-marrow cells were suspended in the IMDM medium of ⅓ concentration (1, 3, 10 and 30 μM of EMP1; 100 μM of 2-mercaptoethanol by Wako Pure Chemical Industries, Ltd.; 24% FCS by JRH Biosciences; 0.8% methylcellulose, IMDM solution M3134 containing methylcellulose by StemCell Technologies Inc.; 2% BSA by Sigma-Aldrich Japan K.K.; and bone-marrow cells 2×10^5/mL) was added to a dish of 3.5 cm in diameter (Nalge Nunc International K.K.). After the medium was cultured at 37° C. under 5% CO2 for 48 hours, the number of CFU-E colonies was determined by using an inverted microscope. […] Data is indicated as the average value.
The in vitro CFU-E colony assay was conducted in the EMP1 concentration of the maximal action amount thereof. The bone-marrow cells were prepared by the same method as that of Example 1, using a male BDF-1 mouse of 10 weeks old (by Charles River Laboratories Japan, Inc.). […] After each medium was cultured at 37° C. under 5% CO2 for 48 hours, the number of CFU-E colonies was determined by using an inverted microscope. […] Data is indicated as the average value. The vertical axis is the relative value (%) when regarding the number of CFU-E colonies in the control case as 100%.

[3] = blood concentration of arginine after oral administration to rats; type: in vivo; settings: single administration of 1.2 g/kg
Procedure: as §1

COc1cc([C@@H]2c3cc4c(cc3[C@@H](O[C@@H]3O[C@@H]5CO[C@@H](C)O[C@H]5[C@H](O)[C@H]3O)[C@H]3COC(=O)[C@H]23)OCO4)cc(OC)c1O [VP-16, etoposide]
CFU-E inhibiting action (inhibition of expression of CFU-E colonies) ([1]; 1 nM VP-16, 1 U/mL EPO, FIG. 2): 10%
CFU-E inhibiting action (inhibition of expression of CFU-E colonies) ([1]; 10 nM VP-16, 1 U/mL EPO, FIG. 2): 30%
CFU-E inhibiting action (expression of CFU-E colonies) ([1]; 100 nM VP-16, 1 U/mL EPO, FIG. 2): nearly completely inhibited
decrease of number of CFU-E colonies due to single addition ([2]; 10 nM VP-16 alone, 30 μM EMP1, relative to control 100%, FIG. 7): about 30%

N=C(N)NCCC[C@H](N)C(=O)O [arginine]
blood concentration [3]: around 600 μM
number of CFU-E colonies improved on simultaneous addition of arginine ([1]; 600 uM arginine + 10 nM VP-16, 1 U/mL EPO, relative value to control 100%, FIG. 3): ~90%
increase of number of CFU-E colonies as compared with single addition of irinotecan hydrochloride ([1]; 600 uM arginine + 3 μM irinotecan hydrochloride, 1 U/mL EPO, FIG. 5): ~30%
number of CFU-E colonies improved on simultaneous addition of arginine ([2]; 600 μM arginine + 10 nM VP-16, 30 μM EMP1, relative value to control 100%, FIG. 7): ~90%

CCc1c2c(nc3ccc(OC(=O)N4CCC(N5CCCCC5)CC4)cc13)-c1cc3c(c(=O)n1C2)COC(=O)[C@]3(O)CC [irinotecan hydrochloride]
CFU-E inhibiting action (inhibition of expression of CFU-E colonies) ([1]; 1 μM irinotecan hydrochloride, 1 U/mL EPO, FIG. 4): 30%
CFU-E inhibiting action (expression of CFU-E colonies) ([1]; 10 μM irinotecan hydrochloride, 1 U/mL EPO, FIG. 4): nearly completely inhibited

GGTYSCHFGPLTWVCKPQGG-NH2, C6-C15 disulfide bonding (disulfide 6-15; N-terminus assumed; SMILES CC(C)C[C@@H]1NC(=O)[C@@H]2CCCN2C(=O)CNC(=O)[C@H](Cc2ccccc2)NC(=O)[C@H](Cc2c[nH]cn2)NC(=O)[C@@H](NC(=O)[C@H](CO)NC(=O)[C@H](Cc2ccc(O)cc2)NC(=O)[C@@H](NC(=O)CNC(=O)CN)[C@@H](C)O)CSSC[C@@H](C(=O)N[C@@H](CCCCN)C(=O)N2CCC[C@H]2C(=O)N[C@@H](CCC(N)=O)C(=O)NCC(=O)NCC(N)=O)NC(=O)[C@H](C(C)C)NC(=O)[C@H](Cc2c[nH]c3ccccc23)NC(=O)[C@H]([C@@H](C)O)NC1=O) [EMP1]
maximal action amount (CFU-E colony formation) ([2]; EMP1 1, 3, 10 and 30 μM, 48 hours culture, FIG. 6): ≥ 10 µM
